Columns and labels:
human mGlu2 receptor = target: T1, human mGlu2 receptor (Homo sapiens, UniProt Q14416); experiment: [35S]GTPγS binding assay (mGluR2 negative allosteric modulation, glutamate ~EC80 60 μM); format: biochemical; conditions: for GTPγS-hmGluR2 anGT Emax / Emax: maximal % inhibition relative to the control glutamate response (EC80 glutamate); for IC50: membranes from CHO cells transfected with human mGlu2 receptor, glutamate ~EC80 (60 μM), pIC50 = −log IC50 (M), read-out: GTPγS-hmGluR2 anGT pIC50 (converted); for Emax: read-out: GTPγS-hmGluR2 anGT Emax
T1 construct: expressed in transfected cells; host or cells: CHO cells
Protocol: 1) [^35S]GTPγS Binding Assay
[^35S]GTPγS Binding Assay
Total reaction volume was 200 μl. […] Membrane-bound radioactivity was counted in a Topcount.

Male Wiga Wistar rats = experiment: Reversal of LY-404039-induced decrease of palpebral opening in apomorphine-challenged rats (APO LY-404039); format: in vivo, rat; conditions: for ED50: Rattus norvegicus, PO (oral route), apomorphine challenged rats;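 as to ED50: Reversal defined as cumulative palpebral opening score above 26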
Protocol: B) In Vivo Pharmacology 1) Reversal of LY-404039-Induced Decrease of Palpebral Opening in Apomorphine-Challenged Rats.
Male Wiga Wistar rats (Crl:WI; Charles River Germany; 220±40 g) were housed under standard laboratory conditions (21±2° C.; 50-65% relative humidity; light-dark cycle set at 12 h; lights on at 6.00 h) and fasted overnight prior to the start of the experiments (tap water remained available ad libitum). During the test period, they were housed in individual cages. Palpebral opening was scored every 5 min over the first hour after injection of apomorphine (1.0 mg/kg, i.v.) in animals either pretreated or not pretreated with LY-404039 (2.5 mg/kg, s.c.) at 1 h prior to the apomorphine injection. The animals were also pretreated with test compound or solvent at a predefined interval before apomorphine challenge. The score system was: (5) exophthalmos, (4) wide open, (3) open for three-quarters, (2) half open, (1) open for one-quarter, (0) closed. The scores for palpebral opening were cumulated over the 60-min observation period.
In animals receiving apomorphine alone the median palpebral opening is 43 whereas in animals receiving apomorphine and LY-404039, the median palpebral opening is 17.

rats = experiment: Reversal of the effect of the mGluR2 PAM JNJ-42153605-induced inhibition of scopolamine-induced hyperlocomotion (SCOP JNJ-42153605); format: in vivo, rat; conditions: Rattus norvegicus; PO (oral route); rats; reversal criterion total distance >1500 cm
Protocol: 2) Reversal of the Effect of the mGluR2 PAM JNJ-42153605-Induced Inhibition of Scopolamine-Induced Hyperlocomotion Apparatus
Motor activity was measured in microprocessor-based motor activity arenas (closed gray PVC cylinders with a height of 39 cm and a diameter of 31 cm). Each arena was placed on an infrared LED (8×8 LEDs) lit box (white PVC squared box; 40×40 cm^2; height 12.5 cm. An infrared-sensitive tube camera and a white light source were mounted to the ceiling above the observation chamber to track the animal. The total distance traveled (cm) was recorded and analyzed using the Noldus Ethovision XT Video Tracking System (Version 7.0.418; Noldus, Wageningen, The Netherlands). The intensity of the light within the activity cages (measured in the centre at the level of the floor) ranged between 4 and 8 LUX.
The rats were pretreated with test compound or vehicle at 60 min before the start of the activity recordings and placed into individual cages. The rats were challenged with JNJ-42153605 (3-(cyclopropylmethyl)-7-(4-phenylpiperidin-1-yl)-8-(trifluoromethyl)[1,2,4]triazolo[4,3-a]pyridine; WO2010/130424; Cid et al. J. Med. Chem. 2012, 55, 8770-8789) (20 mg/kg, i.v.) 30 min before the start of the activity recording combined with scopolamine (0.16 mg/kg, i.v.) just before the start of the activity measurements. Immediately after the injection of scopolamine, the rats were placed into the activity monitors and total distance travelled over the first 30 min was measured.
Solvent-Pretreated Control Rats.
Animals receiving the combination of JNJ-42153605 and scopolamine (n=433) almost always travelled a distance of less than 1500 cm (<1500 cm) (only 2.5% of the control rats travelled a distance of more than 1500 cm (>1500 cm)). On the other hand, animals challenged with scopolamine alone (n=215) always travelled a total distance of more than 1500 cm (>1500 cm) and almost always (in 95.8% of the rats) a distance of more than 4400 cm (>4400 cm). […] For reversal of the inhibitory effect of JNJ-42153605 on the scopolamine-induced hyperlocomotion, the following all-or-none criteria were adopted: (1) reversal: total distance >1500 cm.

Wiga rats = experiment: Induction of mydriasis (MYD); format: in vivo; conditions: Rattus norvegicus, PO (oral route), pupil diameter >25 units, 1-3 h post-administration
Protocol: 3) Induction of Mydriasis
The pupil diameter of Wiga rats was measured with a microscopic micrometer (1 unit=1/24 mm). Criteria for drug-induced effects: pupil diameter >25 units for mydriasis (in controls: 1.9%) 1, 2 or 3 h post-administration of the test compound (wherein the maximum pupil diameter over the full 3 h period is reported).

[1] = control animals, cumulative score over 60 min

T1 sequence (Q14416 19-872): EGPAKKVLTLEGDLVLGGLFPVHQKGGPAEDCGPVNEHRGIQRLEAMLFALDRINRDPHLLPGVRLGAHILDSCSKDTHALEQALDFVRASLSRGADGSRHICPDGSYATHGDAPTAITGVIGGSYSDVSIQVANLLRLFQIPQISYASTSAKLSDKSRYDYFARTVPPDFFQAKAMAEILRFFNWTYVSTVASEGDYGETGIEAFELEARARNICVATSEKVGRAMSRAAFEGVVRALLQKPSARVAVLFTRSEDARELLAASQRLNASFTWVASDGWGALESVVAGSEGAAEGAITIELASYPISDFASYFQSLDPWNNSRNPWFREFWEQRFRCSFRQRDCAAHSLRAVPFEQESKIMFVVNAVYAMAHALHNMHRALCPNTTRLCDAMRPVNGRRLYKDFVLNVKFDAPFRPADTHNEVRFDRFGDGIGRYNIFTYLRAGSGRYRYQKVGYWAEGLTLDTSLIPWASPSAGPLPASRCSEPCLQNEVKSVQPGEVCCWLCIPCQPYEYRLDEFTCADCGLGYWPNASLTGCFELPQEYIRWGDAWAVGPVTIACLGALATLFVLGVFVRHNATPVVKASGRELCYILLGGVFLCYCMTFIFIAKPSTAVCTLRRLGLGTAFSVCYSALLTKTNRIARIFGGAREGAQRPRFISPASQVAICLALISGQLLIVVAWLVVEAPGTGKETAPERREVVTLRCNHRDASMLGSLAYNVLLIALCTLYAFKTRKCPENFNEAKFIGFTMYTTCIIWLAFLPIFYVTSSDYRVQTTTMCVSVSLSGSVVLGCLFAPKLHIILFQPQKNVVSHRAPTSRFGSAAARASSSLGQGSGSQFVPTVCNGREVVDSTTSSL

| SMILES | GTPγS-hmGluR2 anGT Emax (human mGlu2 receptor) [%] | IC50 (human mGlu2 receptor) [M] | ED50 (Male Wiga Wistar rats) [mg/kg] | ED50 (rats) [mg/kg] | melting point [°C] | Palpebral opening score, occurrence score > 26 (%) (Male Wiga Wistar rats; [1]) | Palpebral opening score, occurrence score > 34 (%) (Male Wiga Wistar rats; [1]) | Palpebral opening score, median score (Male Wiga Wistar rats; control animals, scores cumulated over 60 min after apomorphine 1.0 mg/kg i.v., LY-404039 2.5 mg/kg s.c. 1 h before) | Emax (human mGlu2 receptor) [%] | ED50 (Wiga rats) [mg/kg] |
| --- | --- | --- | --- | --- | --- | --- | --- | --- | --- | --- |
| COCC1CN(c2ccc(C(F)(F)F)cc2)C(=O)c2c(NC(=O)c3ccccc3F)cnn21 (single isomer, unassigned) [Co. No. 62a] | 111 | 1.26e-08 | > 2.5 | > 2.5 | 162.59 |  |  |  |  |  |
| COCC1CN(c2ccc(C(F)(F)F)cc2)C(=O)c2c(NC(=O)c3ccc(N)nc3)cnn21 (single isomer, unassigned) [Co. No. 95] | 114 | 6.31e-09 | > 2.5 | 1.26 | 225.94 |  |  |  |  |  |
| CN1CCc2cccc3c2[C@H]1Cc1ccc(O)c(O)c1-3 [Apomorphine alone, apomorphine, reference compound] |  |  |  |  |  | 99.5 | 95.9 | 43 |  |  |
| C[C@H]1CN(c2ccc(C(F)(F)F)c(Cl)c2)C(=O)c2c(NC(=O)c3ccc(N)nc3)cnn21 [Co. No. 1, 6-Amino-N-[(7S)-5-[3-chloro-4-(trifluoromethyl)phenyl]-7-methyl-4-oxo-6,7-dihydropyrazolo[1,5-a]pyrazin-3-yl]pyridine-3-carboxamide] |  | 1.15e-09 | 0.39 | 0.26 | 219.62 |  |  |  | 109 | 14.1 |
| Cc1cc(N2C[C@H](C)n3ncc(NC(=O)c4ccc(N)nc4)c3C2=O)ccc1C(F)(F)F [Co. No. 4] |  | 1.66e-09 | 1.26 | 0.5 | 202.24 |  |  |  | 106 |  |
| Cc1cc(C(=O)Nc2cnn3c2C(=O)N(c2ccc(C(F)(F)F)c(Cl)c2)C[C@@H]3C)ccn1 [Co. No. 12] |  | 2.14e-09 | 0.42 | 0.32 | 159.96 |  |  |  | 107 | 21.5 |
| C[C@H]1CN(c2ccc(C(F)(F)F)c(F)c2)C(=O)c2c(NC(=O)c3ccc(N)nc3)cnn21 [Co. No. 13] |  | 2.63e-09 | 0.2 | 0.32 | 207.25 |  |  |  | 109 |  |
| C[C@H]1CN(c2ccc(C(F)(F)F)cc2)C(=O)c2c(NC(=O)c3cccnc3)cnn21 [Co. No. 28] |  | 7.59e-09 | 0.78 | 0.39 | 152.59 |  |  |  | 107 | 25 |
| Cc1cc(C(=O)Nc2cnn3c2C(=O)N(c2ccc(C(F)(F)F)cc2)C[C@@H]3C)cc(C)n1 [Co. No. 93] |  | 2.75e-09 | 0.79 | 0.5 | 154.26 |  |  |  | 110 |  |
| C[C@H]1CN(c2ccc(C(F)(F)F)c(Cl)c2)C(=O)c2c(NC(=O)c3cccnc3)cnn21 [Co. No. 100] |  | 2.19e-09 |  | 0.8 | 157.47 |  |  |  | 106 | > 2.5 |
| C[C@H]1CN(c2ccc(Cl)c(Cl)c2)C(=O)c2c(NC(=O)c3cnccn3)cnn21 [Co. No. 104] |  | 1.82e-09 |  | 0.32 | 201.39 |  |  |  | 107 | 6.6 |
| Cc1cc(C(=O)Nc2cnn3c2C(=O)N(c2ccc(Cl)c(Cl)c2)C[C@@H]3C)cc(C)n1 [Co. No. 106] |  | 1.07e-09 | > 0.63 | > 0.63 | 186.11 |  |  |  | 108 |  |
| Cc1cc(C(=O)Nc2cnn3c2C(=O)N(c2ccc(C(F)(F)F)c(C)c2)C[C@@H]3C)cc(C)n1 [Co. No. 113] |  | 2.04e-09 |  | 0.5 | 164.61 |  |  |  | 107 | > 40 |

Source: patent publication US10519162B2, “6,7-dihydropyrazolo[1,5-α]pyrazin-4(5H)-one compounds and their use as negative allosteric modulators of mGluR2 receptors” (Janssen Pharmaceutica NV, priority 2014, dated 2019)
